The source of these data is patent US6218393A, “Anthranilic acid derivatives as multi drug resistance modulators” (priority 1997, dated 2001).

Assay [1] relates to AR 1.0 cells. Kind of assay: Drug accumulation assay: daunorubicin accumulation in AR 1.0 cells. It is filed as cell-based. The conditions noted are these: Mus musculus, 100% = accumulation with verapamil 100 μM, 1 hr, 37° C. On the procedure: The EMT6 mouse mammary carcinoma cell line and the MDR resistant subline AR 1.0 were cultured in RPMI 1640 medium containing 10% foetal calf serum and 2 mM glutamine at 37° C. in 5% CO2. Cells were passaged between 1 in 200 and 1 in 2000 in the case of the parental cell line and between 1 in 20 and 1 in 200 in the case of the MDR resistant subline, after trypsinisation (0.25% trypsin, 0.2 gl^-1, EDTA).
AR 1.0 cells were seeded 48 hours prior to assay into 96 well opaque culture plates (Canberra Packard).

The test system of assay [2] is AR 1.0 cells. Briefly: Potentiation index with doxorubicin titration. The format is cell-based, mouse. The conditions noted are these: for Potentiation Index at RMA concentration 10 nM: Table C1, RMA 10 nM; for Potentiation Index at RMA concentration 30 nM: Table C1, RMA 30 nM; for Potentiation Index at RMA concentration 50 nM: Table C1, RMA 50 nM; for Potentiation Index at RMA concentration 100 nM: Table C1, RMA 100 nM. Here is the method: The EMT6 mouse mammary carcinoma cell line and the MDR resistant subline AR 1.0 were cultured in RPMI 1640 medium containing 10% foetal calf serum and 2 mM glutamine at 37° C. in 5% CO2. Cells were passaged between 1 in 200 and 1 in 2000 in the case of the parental cell line and between 1 in 20 and 1 in 200 in the case of the MDR resistant subline, after trypsinisation (0.25% trypsin, 0.2 gl^-1, EDTA). […]
(b) Cells were cultured for four days with a titration of doxorubicin (0.263 nM-17.24 μM) in the presence of a fixed concentration of each compound. Proliferation was quantified as described by Skehen et al, loc cit. The IC50 (concentration required to reduce proliferation to 50% of the untreated controls) for doxorubicin alone and with each compound were derived and used to calculate the potentiation index (PI): [formula]

Usually pIC50 stands for the IC50 on a negative log10 scale, so that one unit is a factor of ten. Low values mean a high IC50, high ones a low IC50.

The structures appear in SMILES notation. pIC50: −log10 of the molar value.

`COc1ccc(CN(C)CCc2ccc(NC(=O)c3ccccc3NC(=O)c3cnc4ccccc4c3)cc2)cc1OC(C)C` [compound 9639, Quinoline-3-carboxylic acid [2-(4-{2-[(3-isopropoxy-4-methoxy-benzyl)-methyl-amino]-ethyl}-phenylcarbamoyl)-phenyl]-amide]: the pIC50 in assay [1] was 6.97. Moreover, in assay [2], the “Potentiation Index at RMA concentration 10 nM” value is listed as 2.6, the “Potentiation Index at RMA concentration 30 nM” value is given as 34, the “Potentiation Index at RMA concentration 50 nM” value amounted to 78 and the “Potentiation Index at RMA concentration 100 nM” value turned out to be 136.

In assay [1], `CN(CCc1ccc(NC(=O)c2ccccc2NC(=O)c2cnc3ccccc3c2)cc1)Cc1ccc(N(C)C)cc1` [compound 9655, Quinoline-3-carboxylic acid [2-(4-{2-[(4-dimethylamino-benzyl)-methyl-amino]-ethyl}-phenylcarbamoyl)-phenyl]-amide] showed a pIC50 of 6.25. For the same molecule, in assay [2], the “Potentiation Index at RMA concentration 10 nM” value is reported as 1.8, the “Potentiation Index at RMA concentration 30 nM” value amounted to 13, the “Potentiation Index at RMA concentration 50 nM” value amounted to 37 and the “Potentiation Index at RMA concentration 100 nM” value was 65.

Consider `COc1ccc(CN(C)CCc2ccc(NC(=O)c3ccc(Cl)cc3NC(=O)c3cnc4ccccc4c3)cc2)cc1OC` [compound 9663, Quinoline-3-carboxylic acid [5-chloro-2-(4-{2-[(3-4-dimethoxy-benzyl)-methyl-amino]-ethyl}-phenylcarbamoyl)-phenyl]-amide], for which the pIC50 in assay [1] was 6.76. Also, in assay [2], the “Potentiation Index at RMA concentration 10 nM” value is given as 50, the “Potentiation Index at RMA concentration 30 nM” value amounted to 80, the “Potentiation Index at RMA concentration 50 nM” value was found to be 74 and the “Potentiation Index at RMA concentration 100 nM” value amounted to 82.

For the molecule `COc1cc2c(cc1OC)CN(CCc1ccc(NC(=O)c3cc(SC)ccc3NC(=O)c3cnc4ccccc4c3)cc1)CC2` [compound 9615, Quinoline-3-carboxylic acid (2-{4-[2-(6,7-dimethoxy-3,4-dihydro-1H-isoquinolin-2-yl)-ethyl]-phenylcarbamoyl}-4-methylsulfanyl-phenyl)-amide], in assay [1], the pIC50 was 6.67. Besides, in assay [2], the “Potentiation Index at RMA concentration 10 nM” value came to 2, the “Potentiation Index at RMA concentration 30 nM” value was 23, the “Potentiation Index at RMA concentration 50 nM” value is given as 85 and the “Potentiation Index at RMA concentration 100 nM” value is recorded as 175.

`O=C(Nc1ccccc1C(=O)Nc1ccc(CCN2Cc3ccccc3C2)cc1)c1cnc2ccccc2c1` [compound 9626, Quinoline-3-carboxylic acid (2-{4-[2-(1,3-dihydro-isoindol-2-yl)-ethyl]-phenylcarbamoyl}-phenyl)-amide] gave a pIC50 in assay [1] of 6.56. For the same molecule, in assay [2], the “Potentiation Index at RMA concentration 10 nM” value is reported as 1.2, the “Potentiation Index at RMA concentration 30 nM” value is 4, the “Potentiation Index at RMA concentration 50 nM” value is recorded as 8 and the “Potentiation Index at RMA concentration 100 nM” value is listed as 27.

In assay [1], `COc1ccc(CN(C)CCc2ccc(NC(=O)c3ccccc3NC(=O)c3cnc4ccccc4c3)cc2)cc1O` [compound 9647, Quinoline-3-carboxylic acid [2-(4-{2-[(3-hydroxy-4-methoxy-benzyl)-methyl-amino]-ethyl}-phenylcarbamoyl)-phenyl]-amide] showed a pIC50 of 7.48. For the same molecule, in assay [2], the “Potentiation Index at RMA concentration 50 nM” value was 1 and the “Potentiation Index at RMA concentration 100 nM” value is reported as 6.

Molecule `O=C(Nc1ccccc1C(=O)Nc1ccc(CCN2CCc3cc4c(cc3C2)OCO4)cc1)c1cnc2ccccc2c1` [compound 9664, Quinoline-3-carboxylic acid (2-{4-[2-(7,8-dihydro-5H-[1,3]dioxolo[4,5-g]isoquinolin-6-yl)-ethyl]-phenylcarbamoyl}-phenyl)-amide] gave a pIC50 in assay [1] of 5.77. Also, in assay [2], the “Potentiation Index at RMA concentration 10 nM” value is recorded as 1, the “Potentiation Index at RMA concentration 30 nM” value was 1.9, the “Potentiation Index at RMA concentration 50 nM” value is listed as 37 and the “Potentiation Index at RMA concentration 100 nM” value came out at 116.

In turn, `COc1cc(CN(C)CCc2ccc(NC(=O)c3ccccc3NC(=O)c3cnc4ccccc4c3)cc2)ccc1O` [compound 9649, Quinoline-3-carboxylic acid [2-(4-{2-[(4-hydroxy-3-methoxy-benzyl)-methyl-amino]-ethyl}phenylcarbamoyl)-phenyl]-amide] showed a pIC50 in assay [1] of 6.73. Besides, in assay [2], the “Potentiation Index at RMA concentration 10 nM” value was determined as 53, the “Potentiation Index at RMA concentration 30 nM” value came out at 46, the “Potentiation Index at RMA concentration 50 nM” value is given as 60 and the “Potentiation Index at RMA concentration 100 nM” value worked out at 66.

In assay [1], `COc1cc(CCN2CCc3cc(OC)c(OC)cc3C2)ccc1NC(=O)c1ccccc1NC(=O)c1cnc2ccccc2c1` [compound 9651, Quinoline-3-carboxylic acid (2-{4-[2-(6,7-dimethoxy-3,4-dihydro-1H-isoquinolin-2-yl)-ethyl]-2-methoxy-phenylcarbamoyl}-phenyl)-amide] gave a pIC50 of 7.15. Also, in assay [2], the “Potentiation Index at RMA concentration 50 nM” value stood at 1.1 and the “Potentiation Index at RMA concentration 100 nM” value is recorded as 2.2.

In assay [1], `CCOc1cc2c(cc1OCC)CN(CCc1ccc(NC(=O)c3ccccc3NC(=O)c3cnc4ccccc4c3)cc1)CC2` [compound 9665, Quinoline-3-carboxylic acid (2-{4-[2-(6,7-diethoxy-3,4-dihydro-1H-isoquinolin-2-yl)-ethyl]-phenylcarbamoyl}-phenyl)-amide] had a pIC50 of 6.41. Further, in assay [2], the “Potentiation Index at RMA concentration 10 nM” value stood at 1.4, the “Potentiation Index at RMA concentration 30 nM” value is 7, the “Potentiation Index at RMA concentration 50 nM” value stood at 28 and the “Potentiation Index at RMA concentration 100 nM” value was found to be 50.

On to `COc1cc(CN(C)CCc2ccc(NC(=O)c3ccccc3NC(=O)c3cnc4ccccc4c3)cc2)cc(OC)c1OC` [compound 9640, Quinoline-3-carboxylic acid [2-(4-{2-[methyl-(3,4,5-trimethoxy-benzyl)-amino]-ethyl}-phenylcarbamoyl)-phenyl]-amide], for which the pIC50 in assay [1] was 6.71. Further, in assay [2], the “Potentiation Index at RMA concentration 10 nM” value is 1, the “Potentiation Index at RMA concentration 30 nM” value turned out to be 2.5, the “Potentiation Index at RMA concentration 50 nM” value was determined as 4.6 and the “Potentiation Index at RMA concentration 100 nM” value turned out to be 23.8.

On to `COc1cc2c(cc1OC)CN(CCc1ccc(NC(=O)c3cccnc3NC(=O)c3cnc4ccccc4n3)cc1)CC2` [compound 9600, Quinoxaline-2-carboxylic acid (3-{4-[2-(6,7-dimethoxy-3,4-dihydro-1H-isoquinolin-2-yl)-ethyl]-phenylcarbamoyl}-pyridin-2-yl)-amide], for which the pIC50 in assay [1] was 6.70. In assay [2], the “Potentiation Index at RMA concentration 50 nM” value came out at 1.98 and the “Potentiation Index at RMA concentration 100 nM” value is on record as 2.55.

`COc1ccc(CCN(C)CCc2ccc(NC(=O)c3ccccc3NC(=O)c3cnc4ccccc4c3)cc2)cc1OC` [compound 9630, Quinoline-3-carboxylic acid {2-[4-(2-{[2-(3,4-dimethoxy-phenyl)-ethyl]-methyl-amino}-ethyl)-phenylcarbamoyl]-phenyl}-amide]: the pIC50 in assay [1] was 6.63. Further, in assay [2], the “Potentiation Index at RMA concentration 10 nM” value is 1, the “Potentiation Index at RMA concentration 30 nM” value stood at 2, the “Potentiation Index at RMA concentration 50 nM” value was 6 and the “Potentiation Index at RMA concentration 100 nM” value is recorded as 26.

Regarding `COc1cc2c(cc1OC)CN(CCc1ccc(NC(=O)c3ccccc3NC(=O)c3csc(C)n3)cc1)CC2` [compound 9635, 2-Methyl-thiazole-4-carboxylic acid (2-{4-[2-(6,7-dimethoxy-3,4-dihydro-1H-isoquinolin-2-yl)-ethyl]-phenylcarbamoyl}-phenyl)-amide], in assay [1], the pIC50 is 6.17. Moreover, in assay [2], the “Potentiation Index at RMA concentration 30 nM” value was 1.3, the “Potentiation Index at RMA concentration 50 nM” value is reported as 2 and the “Potentiation Index at RMA concentration 100 nM” value amounted to 7.

In assay [1], `COc1cc2c(cc1OC)CN(CCc1ccc(NC(=O)c3cscc3NC(=O)c3ccc(C)nc3)cc1)CC2` [compound 9617, N-(4-{4-[2-(6,7-Dimethoxy-3,4-dihydro-1H isoquinolin-2-yl)-ethyl]-phenylcarbamoyl}-thiophen-3-yl)-6-methyl-nicotinamide] gave a pIC50 of 6.69. Moreover, in assay [2], the “Potentiation Index at RMA concentration 10 nM” value amounted to 1.5, the “Potentiation Index at RMA concentration 30 nM” value is 4, the “Potentiation Index at RMA concentration 50 nM” value is listed as 15 and the “Potentiation Index at RMA concentration 100 nM” value is given as 81.

`COc1cc2c(cc1OC)CN(CCc1ccc(NC(=O)c3ccccc3NC(=O)c3coc(C)n3)cc1)CC2` [compound 9638, 2-Methyl-oxazole-4-carboxylic acid (2-{4-[2-(6,7-dimethoxy-3,4-dihydro-1H-isoquinolin-2-yl)-ethyl]-phenylcarbamoyl}-phenyl)-amide] showed a pIC50 in assay [1] of 6.26. In addition, in assay [2], the “Potentiation Index at RMA concentration 30 nM” value is reported as 1.1, the “Potentiation Index at RMA concentration 50 nM” value came to 1.5 and the “Potentiation Index at RMA concentration 100 nM” value is reported as 2.6.
